Test results taken from US7598377B2, “Inhibition of phosphoinositide 3-kinase β” (AstraZeneca AB, priority 2002, dated 2009).

Assays:
Type in all cases: biochemical
[1] = target: T1, P110 δ (Homo sapiens, UniProt O00329); test: Isoform selective in vitro PI3K enzyme assay (Example 13), δ from THP-1 cells; conditions: read-out: P110 δ IC50s
T1 construct: The δ isoform was immunoprecipitated from THP-1 cells; endogenous in cells; host or cells: THP-1 cells (immunoprecipitated with antibody sc-7176)
Description: In vitro enzyme assays were conducted as a primary screen to determine drug candidate isoform affinity and specificity. […] The γ isoform was produced as a recombinant protein in the Kinacia laboratories. […] Standard phosphorylation assays using phosphatidylinositol and ^32P were used to measure the enzyme activity in the immunoprecipates in the presence or absence of an inhibitor. Enzyme activity was determined over a range of inhibitor concentrations to establish an IC50 value.

[2] = target: T2, P110 γ (Homo sapiens, UniProt P48736); test: Isoform selective in vitro PI3K enzyme assay (Example 13), γ recombinant; conditions: read-out: P110 γ IC50s
T2 construct: made in house
Description: In vitro enzyme assays were conducted as a primary screen to determine drug candidate isoform affinity and specificity. The α and β isoforms of the PI3K were immunoprecipitated from a platelet lysate, using an antibodies obtained from Santa Cruz Biotechnology, that recognized specific regions of p110α (sc-7174) and β (sc-603) isoforms. The γ isoform was produced as a recombinant protein in the Kinacia laboratories. […] Standard phosphorylation assays using phosphatidylinositol and ^32P were used to measure the enzyme activity in the immunoprecipates in the presence or absence of an inhibitor. Enzyme activity was determined over a range of inhibitor concentrations to establish an IC50 value.

[3] = system: PI 3-kinase immunoprecipitated from human platelets (p85/110 form); test: In vitro PI 3-kinase assay (Example 8), Platelet IP (p85); conditions: read-out: Platelet IP (p85) IC50s
Description: The effect of pyridine-substituted compounds on PI 3-kinase activity was determined using an in vitro PI 3-kinase assay. This assay was performed using PI 3-kinase immunoprecipitated from human platelets as the enzyme and PI as the substrate. The PI 3-kinase activity was quantitated by measuring the enzymatic incorporation of [^32P] into PI, forming PI([^32P]-3)P, as previously described (Susa et al., 1992, The Journal of Biological Chemistry 267(32):22951-22956.
Washed human platelets were lysed in Triton X-100 lysis buffer (10 mM Tris, pH 7.4, 1% Triton X-100, 2 mM EDTA, 1 mM PMSF) for 30 minutes. The Triton X-100 insoluble fraction was removed by centrifugation of the cell lysates at 15,000 g for 10 minutes. PI 3-kinase was immunoprecipitated by mixing 500 μg of the cell lysate with 1 μg of a rabbit anti-rat antibody against the p85/110 form of PI 3-kinase and 30 μl of 50% Protein A-sepharose beads for 2 hours at 4° C. The Protein A-sepharose-bound PI 3-kinase was isolated by pelleting the beads at 15,000 g for 5 seconds, and washing three times with ice-cold Triton X-100 lysis buffer followed by four washes with PI 3-kinase assay buffer (20 mM HEPES, pH 7.4, 1 mM EGTA, 5 mM MgCl2).
PI stored in CHCl3 was dried under N2, resuspended in the lipid buffer (50 mM HEPES, pH 7.2, 1 mM EDTA) at a final concentration of 330 μg/ml, and sonicated for 6 minutes on ice. PI([^32P]-3)P was generated by mixing the immunoprecipitated PI 3-kinase for 20 minutes with 40 μl of the PI, 10 μl of ATP (1 mM) and ^32P-r-ATP (0.5 μCi, 1 μCi/nmol), 10 μl of 10× kinase buffer, in a final assay volume of 100 μl adjusted with H2O. TGX-was preincubated with the PI 3-kinase for 5 minutes prior to the addition of ATP. The assay was terminated with 100 μl of 1 N HCl, and the PI([^32P]-3)P product extracted with 200 μl chloroform:methanol (1:1) and 500 μl 2 M KCl. The PI([^32P]-3)P in the chloroform phase was resolved by thin layer chromatography using a solvent system containing CHCl3:MeOH:HAC:H2O (43:38:5:7) (v:v:v:v), and visualized by autoradiography. The PI([^32P]-3)P spots were then scraped off from the TLC plates, deacylated with 1 ml methylamine:butanol:methanol (42:9:47) (v:v:v) for 4 hours at 53° C., and quantitated using a liquid scintillation counter (LKB 1209 RackBETA).

T1 sequence (O00329 whole entry, canonical isoform): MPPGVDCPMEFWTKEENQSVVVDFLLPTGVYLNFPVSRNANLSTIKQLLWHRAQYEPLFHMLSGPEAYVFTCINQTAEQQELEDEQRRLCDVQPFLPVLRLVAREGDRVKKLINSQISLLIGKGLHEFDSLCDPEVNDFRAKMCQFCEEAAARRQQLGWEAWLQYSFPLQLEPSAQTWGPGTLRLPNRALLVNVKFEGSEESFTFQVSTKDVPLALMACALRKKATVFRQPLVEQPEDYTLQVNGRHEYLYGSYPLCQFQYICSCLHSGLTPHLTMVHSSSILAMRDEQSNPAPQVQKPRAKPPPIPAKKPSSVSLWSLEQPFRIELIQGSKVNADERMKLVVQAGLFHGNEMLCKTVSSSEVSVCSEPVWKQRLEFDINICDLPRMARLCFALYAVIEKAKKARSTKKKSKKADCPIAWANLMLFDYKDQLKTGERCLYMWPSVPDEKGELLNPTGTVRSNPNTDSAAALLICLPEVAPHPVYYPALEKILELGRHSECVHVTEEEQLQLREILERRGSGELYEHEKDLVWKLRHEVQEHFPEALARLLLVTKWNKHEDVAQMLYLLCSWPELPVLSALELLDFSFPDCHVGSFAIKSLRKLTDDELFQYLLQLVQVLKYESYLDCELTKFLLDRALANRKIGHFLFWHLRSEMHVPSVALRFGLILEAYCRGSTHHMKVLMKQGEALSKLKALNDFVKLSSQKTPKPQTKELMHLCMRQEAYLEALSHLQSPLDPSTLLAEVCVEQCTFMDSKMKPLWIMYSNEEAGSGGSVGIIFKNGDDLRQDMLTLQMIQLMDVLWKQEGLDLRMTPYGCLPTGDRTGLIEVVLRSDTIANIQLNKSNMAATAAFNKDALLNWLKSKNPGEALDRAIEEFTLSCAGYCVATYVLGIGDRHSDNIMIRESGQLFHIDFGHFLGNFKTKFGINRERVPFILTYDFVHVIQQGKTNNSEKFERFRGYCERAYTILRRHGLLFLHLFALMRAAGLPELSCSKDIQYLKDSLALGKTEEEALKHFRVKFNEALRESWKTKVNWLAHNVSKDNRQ
T1 sequence (P27986 whole entry partner, canonical isoform): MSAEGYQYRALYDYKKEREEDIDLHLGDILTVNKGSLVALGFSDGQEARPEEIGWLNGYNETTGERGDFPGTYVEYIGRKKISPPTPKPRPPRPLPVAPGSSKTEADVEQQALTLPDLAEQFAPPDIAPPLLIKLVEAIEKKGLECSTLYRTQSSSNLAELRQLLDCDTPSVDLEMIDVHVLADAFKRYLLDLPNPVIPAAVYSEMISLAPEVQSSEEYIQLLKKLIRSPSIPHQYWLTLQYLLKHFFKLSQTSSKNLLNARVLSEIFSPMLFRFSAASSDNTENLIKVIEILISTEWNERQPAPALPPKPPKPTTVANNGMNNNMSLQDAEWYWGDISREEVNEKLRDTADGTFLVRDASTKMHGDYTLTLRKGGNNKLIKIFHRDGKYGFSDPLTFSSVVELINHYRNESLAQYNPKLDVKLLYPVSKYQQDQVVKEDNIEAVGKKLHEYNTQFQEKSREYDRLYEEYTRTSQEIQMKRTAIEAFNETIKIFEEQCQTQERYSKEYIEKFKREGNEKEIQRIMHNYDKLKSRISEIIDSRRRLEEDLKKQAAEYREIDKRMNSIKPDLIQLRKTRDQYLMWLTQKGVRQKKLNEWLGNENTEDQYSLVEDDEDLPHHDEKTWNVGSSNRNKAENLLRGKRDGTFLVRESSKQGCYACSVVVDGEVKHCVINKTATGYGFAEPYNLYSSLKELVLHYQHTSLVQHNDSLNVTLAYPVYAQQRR
T2 sequence (P48736 whole entry, species assumed, canonical isoform): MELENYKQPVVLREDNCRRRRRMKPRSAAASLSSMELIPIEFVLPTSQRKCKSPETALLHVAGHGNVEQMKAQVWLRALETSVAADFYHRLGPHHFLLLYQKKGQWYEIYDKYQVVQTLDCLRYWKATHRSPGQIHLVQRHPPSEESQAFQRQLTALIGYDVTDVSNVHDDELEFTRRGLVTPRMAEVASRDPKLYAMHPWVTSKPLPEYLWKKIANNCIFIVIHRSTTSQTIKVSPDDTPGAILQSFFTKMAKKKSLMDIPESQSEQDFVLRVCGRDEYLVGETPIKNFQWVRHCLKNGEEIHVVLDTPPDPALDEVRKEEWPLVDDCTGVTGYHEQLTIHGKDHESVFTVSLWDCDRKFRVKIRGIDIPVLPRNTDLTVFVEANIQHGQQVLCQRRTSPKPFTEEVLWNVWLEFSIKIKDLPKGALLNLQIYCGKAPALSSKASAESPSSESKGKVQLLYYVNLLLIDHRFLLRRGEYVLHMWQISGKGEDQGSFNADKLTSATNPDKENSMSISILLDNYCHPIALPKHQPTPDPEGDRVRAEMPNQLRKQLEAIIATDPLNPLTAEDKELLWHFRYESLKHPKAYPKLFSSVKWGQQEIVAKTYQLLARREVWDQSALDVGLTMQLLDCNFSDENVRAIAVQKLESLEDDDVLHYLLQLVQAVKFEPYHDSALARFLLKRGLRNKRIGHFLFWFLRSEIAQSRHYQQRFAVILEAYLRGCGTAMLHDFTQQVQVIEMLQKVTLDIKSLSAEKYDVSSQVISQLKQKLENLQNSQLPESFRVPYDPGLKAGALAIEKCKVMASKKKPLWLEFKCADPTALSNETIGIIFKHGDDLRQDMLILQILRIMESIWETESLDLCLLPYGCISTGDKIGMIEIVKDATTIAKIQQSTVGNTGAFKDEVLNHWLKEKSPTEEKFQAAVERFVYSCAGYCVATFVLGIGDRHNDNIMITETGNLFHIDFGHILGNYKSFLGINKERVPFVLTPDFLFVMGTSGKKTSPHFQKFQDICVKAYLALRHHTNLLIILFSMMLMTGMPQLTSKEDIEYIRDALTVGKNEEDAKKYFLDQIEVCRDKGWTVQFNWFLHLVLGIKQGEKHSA

| Compound | IC50 [1] | IC50 [2] | IC50 [3] |
| --- | --- | --- | --- |
| 6-methyl-8-(2-acetamido)phenylaminomethyl-2-(4-pyridinyl)-4H-benzopyran-1-one [KN326] | 1000 nM | 5000 nM | 500 nM |
| Cc1cc(C(C)Nc2ccc(F)cc2C)c2oc(-c3ccncc3)cc(=O)c2c1 (stereo not drawn) [KN303, 8-1-(4-fluoro-2-methylphenylamino)ethyl-6-methyl-2-(4-pyridinyl)-4H-1-benzopyran-4-one] | 500 nM | 1500 nM | 10 nM |
| Cc1cc(C(C)Nc2cccc(C)n2)c2oc(-c3ccncc3)cc(=O)c2c1 (stereo not drawn) [KN310, 8-1-(6-methylpyridin-2-ylamino)ethyl-6-methyl-2-(4-pyridinyl)-4H-1-benzopyran-4-one] | 1000 nM | 7500 nM | 100 nM |
| Cc1cc(CNc2ccccc2)c2oc(-c3ccncc3)cc(=O)c2c1 [KN312, 6-methyl-8-phenylaminomethyl-2-(4-pyridinyl)-4H-benzopyran-1-one] |  |  | 50 nM |
| Cc1cc(COc2ccccc2)c2oc(-c3ccncc3)cc(=O)c2c1 [KN313, 6-methyl-8-phenoxymethyl-2-(4-pyridinyl)-4H-benzopyran-1-one] | 5000 nM |  | 100 nM |
| Cc1cc(CNc2ccccn2)c2oc(-c3ccncc3)cc(=O)c2c1 [KN315, 6-methyl-8-(2-pyridinyl)aminomethyl-2-(4-pyridinyl)-4H-benzopyran-1-one] | 5000 nM | 5000 nM | > 100 nM |
| O=c1cc(-c2ccncc2)nc2c(NCCc3ccccc3)cccn12 [KN316, 9-(2-phenethyl)amino-2-(4-pyridinyl)-4H-Pyrido[1,2-a]pyrimidin-4-one] | 1000 nM |  | 1000 nM |
| Cc1cc(C(C)Oc2ccccc2)c2oc(-c3ccncc3)cc(=O)c2c1 (stereo not drawn) [KN317, 6-methyl-8-1-(phenoxy)ethyl-2-(4-pyridinyl)-4H-benzopyran-1-one] | 5000 nM |  | > 100 nM |
| O=c1cc(-c2ccncc2)[nH]c2c(Oc3ccccc3)cccc12 [KN319, 8-phenoxy-2-(4-pyridinyl)-4-(1H)-quinolinone] | 300 nM | 20000 nM | 500 nM |
| Cc1cc(C(C)Nc2cccc(C(F)(F)F)c2)c2oc(-c3ccncc3)cc(=O)c2c1 (stereo not drawn) [KN322, 8-1-(3-trifluoromethylphenylamino)ethyl-6-methyl-2-(4-pyridinyl)-4H-1-benzopyran-4-one] | 1000 nM |  | 1000 nM |
| Cc1cc(C(C)n2c(C(F)(F)F)nc3ccccc32)c2oc(-c3ccncc3)cc(=O)c2c1 (stereo not drawn) [KN328, 6-methyl-8-1-(2-trifluoromethyl-benzimidazol-1-yl)-ethyl-2-(4-pyridinyl)-4H-benzopyran-1-one] |  |  | 50 nM |
| O=c1cc(-c2ccncc2)oc2c(OCc3ccccc3)cccc12 [KN335, 8-Benzyloxy-2-(4-pyridinyl)-4H-benzopyran-1-one] | 1000 nM |  | 1000 nM |

Now from value to compound:

| IC50 [1] | IC50 [2] | IC50 [3] | Compound |
| --- | --- | --- | --- |
|  |  | 500 nM | 8-Naphthyl-2-(4-pyridinyl)-4(1H)-quinolinone [KN350] |
| 200 nM | 10000 nM | 1000 nM | O=c1cc(-c2ccncc2)oc2c(NCc3ccccc3)cccc12 [KN336] |
| 200 nM | > 10000 nM | 200 nM | Cc1cc(F)ccc1Oc1cccc2c(=O)cc(-c3ccncc3)[nH]c12 [KN337, 8-(4-Fluoro-2-methylphenoxy)-2-(4-pyridinyl)-4(1H)-quinolinone] |
| > 10000 nM | > 10000 nM |  | Cc1cc(C(C)Nc2ccccc2)c2oc(-c3cc(C)nc(Cl)c3)cc(=O)c2c1 (stereo not drawn) [KN340, 8-1-(phenylamino)ethyl-6-methyl-2-(2-chloro-6-methyl-4-pyridinyl)-4H-1-benzopyran-4-one] |
| 50 nM | 5000 nM | 500 nM | O=c1cc(-c2ccncc2)oc2c(Nc3ccccc3)cccc12 [KN341] |
| > 10000 nM | > 10000 nM |  | O=c1cc(-c2ccncc2)oc2cc(OCc3ccccc3)ccc12 [KN342, 7-Benzyloxy-2-(4-pyridinyl)-4H-benzopyran-1-one] |
|  | > 10000 nM | 5000 nM | COc1cccc2c(=O)cc(-c3ccncc3)[nH]c12 [KN344, 8-methoxy-2-(4-pyridinyl)-4(1H)-quinolinone] |
|  | > 10000 nM | 5000 nM | O=c1cc(-c2ccncc2)[nH]c2c(-c3ccccc3)cccc12 [KN345, 8-phenyl-2-(4-pyridinyl)-4(1H)-quinoline] |
| 10000 nM | > 10000 nM | > 10000 nM | O=c1cc(-c2ccncc2)[nH]c2c(Cc3ccccc3)cccc12 [KN346, 8-Benzyl-2-(4-pyridinyl)-4(1H)-quinolinone] |
| > 10000 nM | > 10000 nM | > 10000 nM | Cc1cccn2c(=O)cc(-c3ccncc3)nc12 [KN347, 9-methyl-2-(4-pyridinyl)-4H-Pyrido[1,2-a]pyrimidin-4-one] |
| 2000 nM | > 10000 nM | 500 nM | O=c1cc(-c2ccncc2)nc2c(Cc3ccccc3)cccn12 [KN349, 9-Benzyl-2-(4-pyridinyl)-4H-Pyrido[1,2-a]pyrimidin-4-one] |
|  |  | 500 nM | O=c1cc(-c2ccncc2)oc2c(Nc3cccc(F)c3)cccc12 [KN351, 8-(3-Fluorophenylamino)-2-(4-pyridinyl)-4H-benzopyran-1-one] |
| > 10000 nM | > 20000 nM |  | Cc1cc(-c2ccccc2)c2oc(-c3ccncc3)cc(=O)c2c1 [TGX258, 8-Phenyl-6-methyl-2-(4-pyridinyl)-4H-benzopyran-1-one] |
